In brackets after ≈: the same amount, converted by molar mass.
Legend:
[1] = Cytotoxicity against human HPDE cells assessed as induction of cell death at 5.51 uM; type: functional
Enterobacter cloacae = test: Inhibition of Enterobacter cloacae Metallo-beta-lactamase IMP-1
A549 [2] = test: Antiproliferative activity against human A549 cells assessed as reduction in cell viability incubated for 4 days by MTT assay; type: functional, cell-based; conditions: A549, 96 h
SW-620 = test: Antiproliferative activity against human SW620 cells assessed as reduction in cell viability incubated for 4 days by MTT assay; type: functional, cell-based; conditions: SW-620, 96 h
HepG2 [3] = test: Antiproliferative activity against human HepG2 cells assessed as reduction in cell viability incubated for 4 days by MTT assay; type: functional, cell-based; conditions: HepG2, 96 h
[4] = Antiproliferative activity against human SK-RC-52 cells assessed as reduction in cell viability incubated for 4 days by MTT assay; type: functional, cell-based; conditions: SK-RC-52, 96 h
A-431 = test: Antiproliferative activity against human A-431 cells assessed as reduction in cell viability incubated for 4 days by MTT assay; type: functional, cell-based; conditions: A-431, 96 h
SMMC-7721 = test: Cytotoxicity against human SMMC-7721 cells; type: functional, cell-based
HepG2 [5] = test: Anticancer activity against human HepG2 cells; type: functional, cell-based
T47D = test: Cytotoxicity against human T47D cells; type: functional, cell-based
K562 = test: Anticancer activity against human K562 cells; type: functional, cell-based
HCT-116 [6] = test: Anticancer activity against human HCT-116 cells; type: functional, cell-based
A549 [7] = test: Cytotoxicity against human A549 cells assessed as inhibition of cell growth by MTT assay; type: functional, cell-based
Ovarian carcinoma cell = test: Anticancer activity against human Ovarian carcinoma cell; type: functional
[8] = Anticancer activity against human Colon carcinoma cell; type: functional
[9] = Anticancer activity against human Melanoma tumor cell line; type: functional
[10] = Antiproliferative activity against human A375P cells; type: functional, cell-based
HepG2 [11] = test: Cytotoxicity against human HepG2 cells assessed as inhibition of cell growth incubated for 48 hrs by MTT assay; type: functional, cell-based; conditions: HepG2, 48 h
OVCAR-5 = test: Cytotoxicity against human OVCAR-5 cells; type: functional
OVCAR-4 = test: Cytotoxicity against human OVCAR-4 cells; type: functional
NCI-H226 = test: Cytotoxicity against human NCI-H226 cells; type: functional
HCC 2998 = test: Cytotoxicity against human HCC 2998 cells; type: functional
MCF7 [12] = test: Cytotoxicity against human MCF7 cells; type: functional, cell-based
IGROV-1 = test: Cytotoxicity against human IGROV-1 cells; type: functional
NCI-H460 [13] = test: Cytotoxicity against human NCI-H460 cells; type: functional, cell-based
SF-268 = test: Cytotoxicity against human SF-268 cells assessed as inhibition of cell growth; type: functional
MCF7 [14] = test: Cytotoxicity against human MCF7 cells assessed as inhibition of cell growth; type: functional
NCI-H460 [15] = test: Cytotoxicity against human NCI-H460 cells assessed as inhibition of cell growth; type: functional
SK-NEP-1 = test: Anticancer activity against human SK-NEP-1 cells assessed as inhibition of cell growth; type: functional, cell-based
Ca-Ski = test: Anticancer activity against human Ca-Ski cells assessed as inhibition of cell growth; type: functional, cell-based
Colon 26 [16] = test: Cytotoxicity against mouse Colon 26 cells assessed as inhibition of cell growth; type: functional, cell-based
Colon 26 [17] = test: Antitumor activity against mouse Colon 26 cells xenografted in mouse assessed as tumor suppression rate at 40 mg/kg, po; type: functional
Tubulin = Tubulin (Bos taurus, UniProt Q6B856+Q862L2+Q862F3); test: Antitubulin activity against bovine brain tubulin polymerization by spectrophotometric method
MG-63 = test: Cytotoxicity against human MG-63 cells; type: functional, cell-based
HeLa [18] = test: Cytotoxicity against human HeLa cells; type: functional, cell-based
HepG2 [19] = test: Anticancer activity against human HepG2 cells assessed as inhibition of cell proliferation at 50 uM measured after 24 hrs by MTT assay; type: functional, cell-based; conditions: HepG2, 24 h
HeLa [20] = test: Antiproliferative activity against human HeLa cells assessed as cell growth inhibition by MTT assay; type: functional, cell-based
MDA-MB-231 [21] = test: Antiproliferative activity against human MDA-MB-231 cell line assessed as cell growth inhibition by MTT assay; type: functional, cell-based
HeLa [22] = test: Antiproliferative activity against human HeLa cells assessed as reduction in cell growth after 72 hrs; type: functional, cell-based
MDA-MB-231 [23] = test: Antiproliferative activity against human MDA-MB-231 cells assessed as reduction in cell growth after 72 hrs; type: functional, cell-based; conditions: MDA-MB-231, 72 h
A549 [24] = test: Anticancer activity against human A549 cells assessed as reduction of cell viability at 25 micromol relative to control; type: functional; conditions: dose 25 µmol
A549 [25] = test: Anticancer activity against human A549 cells assessed as reduction of cell viability at 100 micromol relative to control; type: functional; conditions: dose 100 µmol
NCI-H460 [26] = test: Antitumor activity against human NCI-H460 cells; type: functional, cell-based
NCI-H460 [27] = test: Potency index, ratio of MKT-077 IC50 to test compound IC50 for antitumor activity against human NCI-H460 cells; type: functional
HCT-116 [28] = test: Antiproliferative activity against human HCT-116 cells assessed as reduction in cell viability; type: functional, cell-based
HEK293 = test: Antiproliferative activity against human HEK293 cells; type: functional
A549 [29] = test: Antiproliferative activity against human A549 cells; type: functional, cell-based
[30] = Antiproliferative activity against human HLF cells; type: functional

Q: Which Activity [1] does the source give for `C/C(=N/Nc1nc(-c2cc3ccccc3oc2=O)cs1)c1cc2ccccc2oc1=O` here?
A: Its Activity is 50%.

Q: Which IC (Enterobacter cloacae) does the source give for `C[C@@]1(O)[C@@H](COP(=O)(O)OP(=O)(O)OC[C@H]2O[C@@H](c3nc(C(N)=O)cs3)[C@H](O)[C@@H]2O)O[C@@H](n2cnc3c(N)ncnc32)[C@@H]1O` here?
A: Its IC is 0.52 µM.

Q: For `O=C(CCl)Nc1ccc2nc(SCC(=O)Nc3ccc(Br)cn3)sc2c1`, which IC50 (A549 [2]) is on record?
A: The IC50 was 44 nM.

Q: And the IC50 (SW-620)?
A: Its IC50 is 4.3 nM.

Q: What about the IC50 (HepG2 [3]) of the same compound?
A: The IC50 was 48 nM.

Q: And the IC50 [4]?
A: The IC50 was 1.2 nM.

Q: What about the IC50 (A-431) of the same compound?
A: Its IC50 is 20 nM.

Q: For `Nc1nc(-c2ccc(Oc3ccc(Cl)cc3)cc2)cs1`, which IC50 (SMMC-7721) is on record?
A: The IC50 was 1610 nM.

Q: And the IC50 (HepG2 [5])?
A: Its IC50 is 4670 nM.

Q: What about the IC50 (T47D) of the same compound?
A: The IC50 was 917 nM.

Q: And the IC50 (K562)?
A: The IC50 was 12400 nM.

Q: And the IC50 (HCT-116 [6])?
A: The IC50 was 3810 nM.

Q: For `COC(=O)Nc1nc2cc(C(=O)c3cccs3)ccc2[nH]1` [NOCODAZOLE], which IC50 (A549 [7]) is on record?
A: The IC50 was 1810 nM.

Q: For `Cc1nn2c(SCC(=O)Nc3nccs3)nc3ccccc3c2nc1=O`, which GI50 (Ovarian carcinoma cell) is on record?
A: Its GI50 is 250 nM.

Q: What about the GI50 [8] of the same compound?
A: Its GI50 is 450 nM.

Q: What about the GI50 [9] of the same compound?
A: The GI50 was 480 nM.

Q: With `CNC(=O)c1cc(Oc2ccc(NC(=O)Nc3ccc(Cl)c(C(F)(F)F)c3)cc2)ccn1` [SORAFENIB] as the compound, how does the IC50 [10] read?
A: The IC50 was 5600 nM.

Q: And the IC50 (HepG2 [11])?
A: Its IC50 is 5200 nM.

Q: Which results are given for `Cc1cc(-c2nc3cc(F)ccc3s2)ccc1N`?
A: GI50 (OVCAR-5): < 100 nM; GI50 (OVCAR-4): < 100 nM; GI50 (NCI-H226): < 10 nM; GI50 (HCC 2998): < 10 nM; GI50 (MCF7 [12]): < 100 nM; GI50 (IGROV-1): < 10 nM; GI50 (NCI-H460 [13]): < 10 nM

Q: Which results are given for `C/C(=N/NC(=O)c1sc(=S)n(-c2ccccc2)c1N)c1cccnc1`?
A: GI50 (SF-268): 94 nM; GI50 (MCF7 [14]): 42.8 nM; GI50 (NCI-H460 [15]): 94 nM

Q: What does the source list for `CO[C@@H]1C[C@H](C[C@@H](C)[C@@H](OC(=O)C2CCCCN2C)C(C)C)CC[C@H]1OCC/N=c1\sc2cc(Cl)ccc2n1C` (stereo partly drawn)?
A: IC50 (SK-NEP-1): 9600 nM; IC50 (Ca-Ski): 8300 nM

Q: Which IC50 (Colon 26 [16]) does the source give for `COc1ccc(C2SC(N)=NC2c2cc(OC)c(OC)c(OC)c2)cc1N` (stereo not drawn) here?
A: The IC50 was 57.5 nM.

Q: And the Activity (Colon 26 [17])?
A: The Activity was 75%.

Q: And the IC50 (Tubulin)?
A: The IC50 was 1000 nM.

Q: Which IC50 (MG-63) does the source give for `CC(=O)Nc1nc2ccc(NC(=O)Cc3c[nH]c4ccccc34)cc2s1` here?
A: Its IC50 is 48000 nM.

Q: What about the IC50 (MCF7 [12]) of the same compound?
A: Its IC50 is 48000 nM.

Q: And the IC50 (HeLa [18])?
A: The IC50 was 48000 nM.

Q: What does the source list for `CC(=O)Nc1nc2ccc(NS(=O)(=O)c3ccc(C4CCCCC4)cc3)cc2s1`?
A: IC50 (MG-63): 34000 nM; IC50 (MCF7 [12]): 36000 nM; IC50 (HeLa [18]): 44000 nM

Q: Which IC50 (HepG2 [19]) does the source give for `NS(=O)(=O)c1ccc(N2C(=O)CSC2c2ccc([N+](=O)[O-])cc2)cc1` (stereo not drawn) here?
A: Its IC50 is 46000 nM.

Q: With `O=S1(=O)NCCN1CCNc1nccc(-c2c(-c3ccc(F)cc3)nc3sccn23)n1` as the compound, how does the IC50 [10] read?
A: The IC50 was 1900 nM.

Q: What does the source list for `Cc1csc(N/N=C/c2ccccc2)n1`?
A: IC50 (HeLa [20]): 11.4 µg/mL (≈ 52.5 µM); IC50 (MDA-MB-231 [21]): 3.92 µg/mL (≈ 18 µM); IC50 (HeLa [22]): 11.4 µg/mL (≈ 52.5 µM); IC50 (MDA-MB-231 [23]): 3.92 µg/mL (≈ 18 µM)

Q: For `c1ccc(Nc2nc3ccc4cn[nH]c4c3s2)cc1`, which % viability reduction (A549 [24]) is on record?
A: Its % viability reduction is 72.1%.

Q: And the % viability reduction (A549 [25])?
A: The % viability reduction was 78.8%.

Q: For `CCN1C(=O)/C(=C2\Sc3ccccc3N2C)S/C1=N\[n+]1cccc2ccccc21.[I-]`, which IC50 (NCI-H460 [26]) is on record?
A: The IC50 was 6 nM.

Q: What about the “Ratio IC50” value (NCI-H460 [27]) of the same compound?
A: Its value is 216.7.

Q: Which IC50 (HCT-116 [28]) does the source give for `CCCCCCCC(=O)SCC/C=C/[C@@H]1CC(=O)NCc2nc(cs2)C2=N[C@@](C)(CS2)C(=O)N[C@@H](c2ccc(O)cc2)C(=O)O1` here?
A: Its IC50 is 390 nM.

Q: And the GI50 (HEK293)?
A: Its GI50 is > 100000 nM.

Q: And the GI50 (A549 [29])?
A: The GI50 was 1460 nM.

Q: What about the GI50 [30] of the same compound?
A: The GI50 was > 100000 nM.
